Experimental data reported in patent US20230047788A1, “COMPOSITIONS COMPRISING 5-CHOLESTEN-3, 25-DIOL, 3-SULFATE (25HC3S) OR PHARMACEUTICALLY ACCEPTABLE SALT THEREOF AND AT LEAST ONE CYCLIC OLIGOSACCHARIDE” (Virginia Commonwealth University, priority 2016, published 2023).
Where “and” joins values, the source holds several entries; their conditions need not be identical. Equal values may be shown once.

Test: Infusion compatibility of constituted 25HC3S solution with 5% dextrose, 0.9% sodium chloride and two infusion sets
Type: physicochemical
Details: for % Remaining after infusion set / Concentration after infusion set / Osmolality after infusion set / pH after infusion set: 0.9% NaCl
Method: After constitution with Vehicle, the 30 mg/mL 25HC3S product was diluted into 100 mL of 5% dextrose injection, USP or 0.9% sodium chloride injection, USP, and was administered to subjects as an IV infusion ranging from a 30 mg to 150 mg 25HC3S dose. This was accomplished by adding 1.0 mL (for the 30 mg dose) or 5.0 mL (for the 150 mg dose), or any volume in between, of the 30 mg/mL 25HC3S product into a 100 mL dextrose or sodium chloride infusion bag. The entire admixture content in the infusion bag was infused into the subject over approximately 2 hours at a rate of 50 mL/hour.
A physical and chemical compatibility study was conducted at a 30 mg, 48 mg and 300 mg 25HC3S dose in 5% dextrose and 0.9% sodium chloride infusion bags. Descriptions of the two kinds of infusion sets tested with 25HC3S product diluted in 5% dextrose and 0.9% sodium chloride are listed in Table 15. The tubing in catalog number 2H8480 infusion set was composed of polyvinylchloride (PVC), while the tubing in catalog number 2C8858 was polyethylene lined except for a short pump segment (approximately 12 inches) which was composed of PVC.
25HC3S for Injection and Vehicle for 25HC3S for Injection, that had been stored at 2-8° C. for approximately 16 months, were used for the compatibility study. After constitution, 30 mg (1.0 mL of constituted product), 48 mg (1.6 mL of constituted product) or 300 mg (10 mL of constituted product) were added to 100 mL infusion bags of 5% dextrose and 0.9% sodium chloride, mixed thoroughly, and stored for 24 hours at room temperature and at 2-8° C. […] Taking into consideration the overfill per infusion bag and the additional volume introduced by adding the constituted 25HC3S product to each bag, the expected concentrations of 25HC3S were 0.28 mg/mL, 0.44 mg/mL, and 2.56 mg/mL in the infusion bags. Two kinds of infusion sets were then attached to the drug containing infusion bags, and the entire contents were eluted through the infusion sets at approximately 50 mL/hour at room temperature. Samples were collected from the 25HC3S prepared infusion bags at T=0 and at 24 hours, and from the total eluent passed through the infusion sets, and tested for 25HC3S concentration using HPLC. Solution visual appearance, osmolality (using method USP<785>), and pH (using method USP<791>) were also measured on the collected samples.

[1] = ~0.28 mg/mL, 24 h 2-8°C then Baxter 2C8858
[2] = ~0.28 mg/mL, 24 h 2-8°C then Baxter 2H8480
[3] = ~0.28 mg/mL, 24 h RT then Baxter 2C8858
[4] = ~0.28 mg/mL, 24 h RT then Baxter 2H8480
[5] = ~0.44 mg/mL, 24 h 2-8°C then Baxter 2C8858
[6] = ~0.44 mg/mL, 24 h 2-8°C then Baxter 2H8480
[7] = ~0.44 mg/mL, 24 h RT then Baxter 2C8858
[8] = ~0.44 mg/mL, 24 h RT then Baxter 2H8480
[9] = ~2.56 mg/mL, 24 h 2-8°C then Baxter 2C8858
[10] = ~2.56 mg/mL, 24 h 2-8°C then Baxter 2H8480
[11] = ~2.56 mg/mL, 24 h RT then Baxter 2C8858
[12] = ~2.56 mg/mL, 24 h RT then Baxter 2H8480
[13] = 0.9% sodium chloride bag, ~0.28 mg/mL, 24 Hours at 2-8°C
[14] = 0.9% sodium chloride bag, ~0.28 mg/mL, 24 Hours at RT
[15] = 0.9% sodium chloride bag, ~0.28 mg/mL, T = 0
[16] = 0.9% sodium chloride bag, ~0.44 mg/mL, 24 Hours at 2-8°C
[17] = 0.9% sodium chloride bag, ~0.44 mg/mL, 24 Hours at RT
[18] = 0.9% sodium chloride bag, ~0.44 mg/mL, T = 0
[19] = 0.9% sodium chloride bag, ~2.56 mg/mL, 24 Hours at 2-8°C
[20] = 0.9% sodium chloride bag, ~2.56 mg/mL, 24 Hours at RT
[21] = 0.9% sodium chloride bag, ~2.56 mg/mL, T = 0

C[C@H](CCCC(C)(C)O)[C@H]1CC[C@H]2[C@@H]3CC=C4C[C@@H](OS(=O)(=O)[O-])CC[C@]4(C)[C@H]3CC[C@]12C.[Na+] [25HC3S, 5-cholesten-3, 25-diol, 3-sulfate]
% Remaining after infusion set [1]: (100.0%)
Concentration after infusion set [1]: 275 µg/mL
Osmolality after infusion set [1]: 276 mmol/kg
pH after infusion set [1]: 5.78
% Remaining after infusion set [2]: (100.4%)
Concentration after infusion set [2]: 275 µg/mL
Osmolality after infusion set [2]: 277 mmol/kg
pH after infusion set [2]: 5.81
% Remaining after infusion set [3]: (100.0%)
Concentration after infusion set [3]: 274 µg/mL
Osmolality after infusion set [3]: 276 mmol/kg
pH after infusion set [3]: 5.83
% Remaining after infusion set [4]: (99.6%)
Concentration after infusion set [4]: 272 µg/mL
Osmolality after infusion set [4]: 276 mmol/kg
pH after infusion set [4]: 5.78
% Remaining after infusion set [5]: (100.2%)
Concentration after infusion set [5]: 426 µg/mL
Osmolality after infusion set [5]: 281 mmol/kg
pH after infusion set [5]: 7.16
% Remaining after infusion set [6]: (100.0%)
Concentration after infusion set [6]: 434 µg/mL
Osmolality after infusion set [6]: 282 mmol/kg
pH after infusion set [6]: 7.13
% Remaining after infusion set [7]: (100.0%)
Concentration after infusion set [7]: 424 µg/mL
Osmolality after infusion set [7]: 288 mmol/kg
pH after infusion set [7]: 7.20
% Remaining after infusion set [8]: (99.8%)
Concentration after infusion set [8]: 433 µg/mL
Osmolality after infusion set [8]: 286 mmol/kg
pH after infusion set [8]: 7.09
% Remaining after infusion set [9]: (99.8%)
Concentration after infusion set [9]: 2520 µg/mL
Osmolality after infusion set [9]: 283 mmol/kg
pH after infusion set [9]: 5.70
% Remaining after infusion set [10]: (100.0%)
Concentration after infusion set [10]: 2530 µg/mL
Osmolality after infusion set [10]: 283 mmol/kg
pH after infusion set [10]: 5.72
% Remaining after infusion set [11]: (99.6%)
Concentration after infusion set [11]: 2520 µg/mL
Osmolality after infusion set [11]: 279 mmol/kg
pH after infusion set [11]: 5.83
% Remaining after infusion set [12]: (100.4%)
Concentration after infusion set [12]: 2460 µg/mL
Osmolality after infusion set [12]: 283 mmol/kg
pH after infusion set [12]: 5.81
Concentration [13]: 275 µg/mL
Osmolality [13]: 276 mmol/kg
pH [13]: 5.87 and 5.99
Concentration [14]: 272 µg/mL and 274 µg/mL
Osmolality [14]: 275 mmol/kg and 277 mmol/kg
pH [14]: 5.93 and 5.92
Osmolality [15]: 278 mmol/kg and 277 mmol/kg
T = 0 Conc. [15]: 0.273 mg/mL and 0.274 mg/mL and 0.275 mg/mL
pH [15]: 6.39 and 6.43 and 6.45 and 6.40
% Remaining Compared to T = 0 [16]: (100.0%)
Concentration [16]: 434 µg/mL and 425 µg/mL
Osmolality [16]: 281 mmol/kg
pH [16]: 7.43 and 7.19
% Remaining Compared to T = 0 [17]: (100.0%)
Concentration [17]: 434 µg/mL and 424 µg/mL
Osmolality [17]: 280 mmol/kg
pH [17]: 7.33 and 7.41
Osmolality [18]: 277 mmol/kg and 279 mmol/kg and 284 mmol/kg and 280 mmol/kg
T = 0 Conc. [18]: 0.434 mg/mL and 0.424 mg/mL and 0.425 mg/mL
pH [18]: 7.30 and 7.43 and 7.21 and 7.44
Concentration [19]: 2510 µg/mL and 2520 µg/mL
Osmolality [19]: 283 mmol/kg
pH [19]: 5.93 and 5.96
Concentration [20]: 2500 µg/mL and 2525 µg/mL
Osmolality [20]: 282 mmol/kg
pH [20]: 6.01 and 5.86
Osmolality [21]: 282 mmol/kg and 281 mmol/kg
T = 0 Conc. [21]: 2.450 mg/mL and 2.530 mg/mL and 2.525 mg/mL
pH [21]: 6.20 and 6.10 and 6.07 and 6.11
deviation of concentrations from initial T=0 time point (0.9% sodium chloride, 24 hours at RT and 2-8°C and after elution through infusion sets): ≤ 2.0%
Concentration (5% dextrose bag, ~0.28 mg/mL, 24 Hours at 2-8°C): 280 µg/mL
